# From patent US12617777B2, “GPR84 antagonists and uses thereof” (Liminal BioSciences Limited, priority 2021, dated 2026)
# pIC50: −log10 of the molar value.
# How the values were obtained:
# [1] = target: T1, human GPR84 receptor (Homo sapiens, UniProt Q9NQS5); assay: Gαi biosensor BRET assay in HEK293 cells (antagonism of ZQ-16); type: cell-based; conditions: for inhibition at 10 µM: HEK293, single concentration 10 μM (designated F); for pIC50: HEK293 cells, antagonism of 200 nmol/L ZQ-16; for inhibition at 25 µM: HEK293, single concentration 25 μM (designated I); for inhibition at 2 µM: HEK293, single concentration 2 μM (designated A); for inhibition at 1 µM: HEK293, single concentration 1 μM (designated A°); for inhibition at 5 µM: HEK293, single concentration 5 μM (designated D)
# T1 construct: host or cells: HEK293, transient transfection
# Summary of the method: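 HEK293 cells transiently expressing human GPR84, Gαi2-Rluc8, GFP10-Gγ2 and Gβ1, in Tyrode's buffer pH 7.5. Compounds preincubated 5 min at 37° C, then 200 nmol/L ZQ-16 for 5 min at room temperature; coelenterazine 400A 5 μmol/L. BRET2 acceptor/donor ratio, background- and vehicle-corrected net BRET.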
# [2] = test system: neutrophils; assay: Neutrophil migration assay (embelin as chemotactic agent, ATPlite readout); type: cell-based; conditions: for pIC50: Neutrophil, human neutrophils, embelin as chemotactic agent, read-out: Human Neutrophil migration inhibition IC50; for Human Neutrophil migration inhibition - fold potency to Control Compound: normalized to GPR84 antagonist Control Compound (average IC50 131 nM)
# Procedure: Neutrophil migration assay. After isolation, neutrophils were resuspended in chemotaxis buffer (DMEM supplemented with 10 mM HEPES) at a concentration of 8.9×10^6 cells/ml. In a 96-well plate, 20 μl of compound solution in chemotaxis buffer is added to 180 μl of cell suspension. After incubation at 37° C. for 30 minutes, 75 μl of cell suspension is transferred in the upper chamber of a 5 μm pore size Corning HTS transwell. 235 μl of chemotaxis buffer containing the chemotactic agent (embelin) is added to the lower chamber of the transwell. After a 60-minute incubation time at 37° C. in 5%0 C02, the upper chamber of the transwell is removed and the plate is centrifuged at 1500 rpm for 6 minutes. Supermatant is removed and cells resuspended in 100 ul of PBS. ATP content was assessed using ATPlite Luminescence Assay System® according to manufacturer instructions (Perkin Elmer, Buckinghamshire, UK). Briefly, 50 μl of ATPlite buffer and 50 μl of lysis solution is added to the lower chamber of the Transwells. After incubation at room temperature, in the dark with constant agitation for 5 minutes, 150 μl of cell lysate is transferred in a 96 wells white plate and incubated for 10 minutes in the dark. Luminescence is read on a TECAN plate reader, Infinite M1000 (Tecan, Morrisville, NC).
# The compound numbers correspond to the compound numbers in Table 1. […] Normalization of the results takes the donor's variation into account.
# T1 sequence (Q9NQS5 whole entry): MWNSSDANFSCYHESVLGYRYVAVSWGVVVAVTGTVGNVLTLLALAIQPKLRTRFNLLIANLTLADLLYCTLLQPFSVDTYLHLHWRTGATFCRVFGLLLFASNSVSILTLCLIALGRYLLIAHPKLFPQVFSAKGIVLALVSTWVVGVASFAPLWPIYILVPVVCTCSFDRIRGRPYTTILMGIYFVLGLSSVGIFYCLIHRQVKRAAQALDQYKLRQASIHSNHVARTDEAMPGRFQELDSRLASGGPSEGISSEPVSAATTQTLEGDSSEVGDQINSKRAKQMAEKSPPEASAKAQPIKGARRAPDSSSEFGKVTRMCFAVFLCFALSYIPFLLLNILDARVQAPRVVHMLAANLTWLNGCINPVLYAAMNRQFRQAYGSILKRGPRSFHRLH
SMILES,inhibition at 10 µM [1] [%],pIC50 [1],pIC50 [2],inhibition at 25 µM [1] [%],"inhibition at 6.25 µM ([1]; HEK293, single concentration 6.25 μM (designated E)) [%]",inhibition at 2 µM [1] [%],inhibition at 1 µM [1] [%],inhibition at 5 µM [1] [%],Human Neutrophil migration inhibition - fold potency to Control Compound [2]
Cc1cc(N2CCN(Cc3ccccn3)CC2)ccc1-c1cn(C[C@@H]2CCC(F)(F)CO2)nn1 (stereo in doubt) [Compound I-636],> 75,≥ 6.52,≥ 6.52,,,,,,A (IC50 of >1.0-fold relative to Control Compound)
Cc1cc(C#CCN2CCN(c3ccccc3)CC2)ccc1-c1cn(CC2CCCCO2)nn1 (stereo not shown) [Compound I-120],,≥ 6.52,≥ 6.52,,,,,,B (IC50 of >0.5-≤1.0-fold relative to Control Compound)
CN(C)c1cc(N2CC(C)(CO)C2)ccc1-c1cn(C[C@@H]2CC(C)(C)CO2)nn1 (stereo in doubt) [Compound I-589],,≥ 6.52,≥ 6.52,,,,> 75,,A (IC50 of >1.0-fold relative to Control Compound)
CCc1cc(N2CC(C)(C)C2)ccc1-c1cn(CC2OCC(C)(C)CO2)nn1 [Compound I-618],> 75,≥ 6.52,≥ 6.52,,,,,,A (IC50 of >1.0-fold relative to Control Compound)
Cc1cc(C#CCn2cc(-c3ccc([N+](=O)[O-])cc3)nn2)ccc1-c1cn(CC2CCCCO2)nn1 (stereo not shown) [Compound I-454],> 75,≥ 6.52,≥ 6.52,,,,,,A (IC50 of >1.0-fold relative to Control Compound)
Cc1cc(N2CCN(Cc3ccccn3)CC2)ccc1-c1cn(CC2CCC(C)(C)CO2)nn1 (stereo not shown) [Compound I-562],> 75,≥ 6.52,≥ 6.52,,,,,,A (IC50 of >1.0-fold relative to Control Compound)
CN(C)c1cc(N2CC(C)(CO)C2)ccc1-c1cn(C[C@H]2CC(C)(C)CO2)nn1 (stereo in doubt) [Compound I-588],,≥ 6.52,≥ 6.52,,,,> 75,,A (IC50 of >1.0-fold relative to Control Compound)
CC(C)Oc1cc(C#CC2CC2)cnc1-c1cn(CC2OCC(C)(C)CO2)nn1 [Compound I-651],,≥ 6.52,≥ 6.52,,,> 75,,,A (IC50 of >1.0-fold relative to Control Compound)
CN(C)c1cc(C#CCNCc2ccccc2)ccc1-c1cn(CC2CCCCO2)nn1 (stereo not shown) [Compound I-188],,< 5.52,≥ 6.52,,,,,,A (IC50 of >1.0-fold relative to Control Compound)
Cc1cc(N2CC(C)(N(C)Cc3ccccn3)C2)ccc1-c1cn(CC2CCCCO2)nn1 (stereo not shown) [Compound I-451],> 75,6.00 to 6.52,≥ 6.52,,,,,,A (IC50 of >1.0-fold relative to Control Compound)
Cc1cc(C#CCNc2ccccc2)ccc1-c1cn(C[C@H]2CCCCO2)nn1 [Compound I-166],> 75,6.00 to 6.52,≥ 6.52,,,,,,A (IC50 of >1.0-fold relative to Control Compound)
Cc1cc(N2CC(C)(CNc3ccccc3)C2)ccc1-c1cn(CC2CCCCO2)nn1 (stereo not shown) [Compound I-411],> 75,≥ 6.52,6.00 to 6.52,,,,,,B (IC50 of >0.5-≤1.0-fold relative to Control Compound)
Cc1cc(C#CCNCc2ccccc2)ccc1-c1cn(CC2CCCCO2)nn1 (stereo not shown) [Compound I-86],,6.00 to 6.52,6.00 to 6.52,,,,,,C (IC50≤0.5-fold relative to Control Compound)
Cc1cc(C#CCN(C)Cc2ccccc2)ccc1-c1cn(CC2CCCCO2)nn1 (stereo not shown) [Compound I-76],,6.00 to 6.52,≥ 6.52,,,,,> 75,B (IC50 of >0.5-≤1.0-fold relative to Control Compound)
Cc1cc(C#CCN2CC(C)(C)C2)cnc1-c1cn(CC2OCC(C)(C)CO2)nn1 [Compound I-596],> 75,6.00 to 6.52,≥ 6.52,,,,,,A (IC50 of >1.0-fold relative to Control Compound)

# Now from value to molecule, other results behind:
inhibition at 10 µM [1] [%],pIC50 [1],pIC50 [2],inhibition at 25 µM [1] [%],"inhibition at 6.25 µM ([1]; HEK293, single concentration 6.25 μM (designated E)) [%]",inhibition at 2 µM [1] [%],inhibition at 1 µM [1] [%],inhibition at 5 µM [1] [%],SMILES,Human Neutrophil migration inhibition - fold potency to Control Compound [2]
> 75,5.52 to 6.00,≥ 6.52,,,,,,Cc1cc(C#CC2CC2)cnc1-c1cn(CC2CCCCO2)cn1 (stereo not shown) [Compound I-424],A (IC50 of >1.0-fold relative to Control Compound)
> 75,6.00 to 6.52,≥ 6.52,,,,,,Cc1ccc(C#CC2CC2)cc1-n1nc(CC2CCCO2)oc1=O (stereo not shown) [Compound I-17],B (IC50 of >0.5-≤1.0-fold relative to Control Compound)
,6.00 to 6.52,≥ 6.52,> 75,,,,,Cc1cc(N2CC(C)(C)C2)ccc1-c1cn(CC2CCCCO2)nn1 (stereo not shown) [Compound I-75],B (IC50 of >0.5-≤1.0-fold relative to Control Compound)
,< 5.52,5.52 to 6.00,,50 to 75,,,,Cc1cc(C#CC2CC2)ccc1-c1cn(CC2CCCCO2)nn1 (stereo not shown) [Compound I-34],C (IC50≤0.5-fold relative to Control Compound)
,6.00 to 6.52,≥ 6.52,,,50 to 75,,,CO[C@@H](c1cn(C[C@H]2CCCCO2)nn1)c1cc(C#CC2CC2)ccc1C [Compound I-510],B (IC50 of >0.5-≤1.0-fold relative to Control Compound)
,< 5.52,6.00 to 6.52,> 75,,,,,Clc1cc(C#CC2CC2)ccc1-c1cn(CC2CCCCO2)nn1 (stereo not shown) [Compound I-315],C (IC50≤0.5-fold relative to Control Compound)
> 75,5.52 to 6.00,≥ 6.52,,,,,,Cc1cc(C#CC2CC2)ccc1-c1cn(CC2CCC(C)(C)CO2)nn1 (stereo not shown) [Compound I-455],B (IC50 of >0.5-≤1.0-fold relative to Control Compound)
> 75,5.52 to 6.00,5.52 to 6.00,,,,,,Cc1cc(C#CC2(O)CCCCC2)ccc1-c1cn(CC2CCCCO2)nn1 (stereo not shown) [Compound I-94],C (IC50≤0.5-fold relative to Control Compound)
,6.00 to 6.52,5.52 to 6.00,,,> 75,,,Cc1ccc(C#CC2CC2)cc1Cc1nnn(CC2CCCCO2)n1 (stereo not shown) [Compound I-418],C (IC50≤0.5-fold relative to Control Compound)
50 to 75,< 5.52,6.00 to 6.52,,,,,,FC(F)(F)c1cc(C#CC2CC2)ccc1-c1cn(CC2CCCCO2)nn1 (stereo not shown) [Compound I-81],C (IC50≤0.5-fold relative to Control Compound)
,6.00 to 6.52,≥ 6.52,,,,,> 75,CCc1cc(C#CC2CC2)ccc1-c1cn(CC2CCCCO2)nn1 (stereo not shown) [Compound I-77],A (IC50 of >1.0-fold relative to Control Compound)
50 to 75,5.52 to 6.00,≥ 6.52,,,,,,Cc1cc(C#CCNC(=O)OC(C)(C)C)ccc1-c1cn(CC2CCCCO2)nn1 (stereo not shown) [Compound I-177],A (IC50 of >1.0-fold relative to Control Compound)
> 75,< 5.52,≥ 6.52,,,,,,Cc1cc(C#CCN2CCC(F)(F)CC2)ccc1-c1cn(CC2CCCCO2)nn1 (stereo not shown) [Compound I-118],C (IC50≤0.5-fold relative to Control Compound)
,6.00 to 6.52,≥ 6.52,,,> 75,,,CO[C@H](c1cn(C[C@@H]2CCCCO2)nn1)c1cc(C#CC2CC2)ccc1C [Compound I-512],C (IC50≤0.5-fold relative to Control Compound)
,6.00 to 6.52,≥ 6.52,,,> 75,,,Cc1ccc(C#CC2CC2)cc1C(OC1CC1)c1cn(CC2OCC(C)(C)CO2)nn1 (stereo not shown) [Compound I-644],A (IC50 of >1.0-fold relative to Control Compound)
,6.00 to 6.52,≥ 6.52,,,> 75,,,CC(C)Oc1cc(C#CCN2CC(C)(C)C2)ccc1-c1cn(C[C@H]2CCCCO2)nn1 [Compound I-413],B (IC50 of >0.5-≤1.0-fold relative to Control Compound)
